Data on 8 compounds can be found in patent US7608622B2, “Imidazo[4,5-b]pyrazinone inhibitors of protein kinases” (Janssen Pharmaceutica NV, priority 2004, dated 2009).

Molecules are shown by their SMILES.

The experiment deals with T1, Aurora-2 (Homo sapiens, UniProt O14965).
T1 construct: autophosphorylation of Aurora-2 (residues 125-391)
T1 sequence (O14965 125-391): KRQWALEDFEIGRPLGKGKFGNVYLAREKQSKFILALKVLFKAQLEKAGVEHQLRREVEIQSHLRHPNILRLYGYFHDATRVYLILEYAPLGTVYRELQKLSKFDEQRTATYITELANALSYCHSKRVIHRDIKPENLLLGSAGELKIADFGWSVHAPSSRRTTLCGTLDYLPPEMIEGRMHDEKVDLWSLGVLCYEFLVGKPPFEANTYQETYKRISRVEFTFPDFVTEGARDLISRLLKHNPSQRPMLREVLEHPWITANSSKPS
Kind of experiment: Aurora-2 Enzymatic Assay (ELISA-based). In kind it is biochemical. The note with it: phosphorylated Aurora-2 (residues 125-391), Histone H3 Ser-10 phosphorylation, averages of three independent measurements; read-out: Aurora-2 IC50 Enzyme. The method, then:
In vitro assays were run to measure potency of Aurora-2 kinase inhibition by selected compounds of Formula I.
Aurora-2 Enzymatic Assay. An ELISA-based enzymatic assay was used to determine the compound potency for Aurora-2. In this assay, phosphorylated Aurora-2 (Pi-Aurora-2) catalyzes the ATP-dependent phosphorylation of Ser-10 of Histone H3. Pi-Aurora-2 was produced by autophosphorylation of Aurora-2 (residues 125-391) by 1 mM ATP in the presence of 10 mM MgCl2. The assay buffer used was 100 mM HEPES, pH 7.5, 1 mM DTT, 0.01% (v/v) Tween-20. Compounds were diluted in assay buffer containing 4% DMSO just prior to the assay. • Procedure. High-binding 96-well ELISA plates (Costar 9018) were coated overnight at 4° C. with 10 μg/ml human Histone H3 (Upstate) in PBS (100 μl/well). The following day, the plates were emptied and blocked with 1% BSA in PBS (150 μl/well) for 1 h at 37° C. At the end of the incubation, plates were washed 3 times with 0.01% Tween-20 in PBS (300 μl/well). 50 μl of compound were dispensed to each well followed by addition of 20 μl 10 mM MgCl2 and 20 μl 50 μM ATP (Sigma). The reaction was initiated by addition of 10 μl 30 nM Pi-Aurora-2. […] The reaction was quenched with 9 μl 50 mM EDTA and the plates were washed 5 times with 0.01% Tween-20 in PBS (300 μl/well). The phospho-histone H3 (Ser10) 6G3 monoclonal antibody (Cell Signaling) was then diluted 2,000-fold with 1% BSA in PBS, and was added to the plates (100 μl/well). Following 1 h incubation at 37° C., the plates were washed as described above. The HRP-conjugated secondary antibody (goat anti-mouse Ig(H+ L)-HRP human absorbed, Southern Biotechnology Associates, Inc.) was diluted 20,000-fold with 1% BSA in PBS and was added to the plates (100 μl/well). The plates were incubated for 1 h at 37° C. and then washed 5 times with 0.01% Tween-20 in PBS (300 μl/well). 100 μl/well TMB, SureBlue Reserve (KPL) were added. After ca. 5-6 min, each well received 100 μl 1 M HCl and the OD450 was measured with a SpectraMax Plus microplate reader (Molecular Devices). Under these conditions, absorbance values for positive and negative controls were ca. 0.1 and 1.7, respectively, and were used to define the 100% and 0% inhibition of the Aurora-2 reaction. The IC50 values reported (Table 1) are the averages of three independent measurements.
For `COc1cccc(Cn2c(=O)[nH]c3ncc(-c4cc(OC)c(OC)c(OC)c4)nc32)c1` [Compound 32, 1-(3-Methoxybenzyl)-6-(3,4,5-trimethoxyphenyl)-1,3-dihydro-imidazo[4,5-b]pyrazin-2-one], the concentration for half-maximal inhibition (IC50) is 0.5 to 1 µM.

For `COc1cc(-c2cnc3[nH]c(=O)n(Cc4cccc5ccccc45)c3n2)cc(OC)c1OC` [Compound 33, 1-Naphthalen-1-ylmethyl-6-(3,4,5-trimethoxyphenyl)-1,3-dihydro-imidazo[4,5-b]pyrazin-2-one], the concentration for half-maximal inhibition (IC50) was > 1 µM.

As to `COc1cc(-c2cnc3[nH]c(=O)n(Cc4ccc5c(c4)OCO5)c3n2)cc(OC)c1OC` [Compound 34, 1-Benzo[1,3]dioxol-5-ylmethyl-6-(3,4,5-trimethoxyphenyl)-1,3-dihydroimidazo[4,5-b]pyrazin-2-one], the IC50 is 0.5 to 1 µM.

For `COc1cc(-c2cnc3[nH]c(=O)n(C4CCc5ccccc54)c3n2)cc(OC)c1OC` (centres unmarked) [Compound 35, 1-Indan-1-yl-6-(3,4,5-trimethoxyphenyl)-1,3-dihydroimidazo[4,5-b]pyrazin-2-one], the half-maximal inhibitory concentration (IC50) was < 0.5 µM.

Turning to `COc1cc(-c2cnc3[nH]c(=O)n(Cc4cccs4)c3n2)cc(OC)c1OC` [Compound 36, 1-Thiophen-2-ylmethyl-6-(3,4,5-trimethoxyphenyl)-1,3-dihydro-imidazo[4,5-b]pyrazin-2-one], the IC50 was < 0.5 µM.

Regarding `COc1cc(-c2cnc3[nH]c(=O)n(Cc4ccccc4Cl)c3n2)cc(OC)c1OC` [Compound 37, 1-(2-Chlorobenzyl)-6-(3,4,5-trimethoxyphenyl)-1,3-dihydro-imidazo[4,5-b]pyrazin-2-one], the 50% inhibitory concentration (IC50) was < 0.5 µM.

On to `COc1cc(-c2cnc3[nH]c(=O)n(Cc4ccc(N)cc4)c3n2)cc(OC)c1OC` [Compound 38, 1-(4-Aminobenzyl)-6-(3,4,5-trimethoxyphenyl)-1,3-dihydroimidazo[4,5-b]pyrazin-2-one], for which the concentration for half-maximal inhibition (IC50) was < 0.5 µM.

On to `COc1cc(-c2cnc3[nH]c(=O)n(Cc4cccc(N)c4)c3n2)cc(OC)c1OC` [Compound 39, 1-(3-Aminobenzyl)-6-(3,4,5-trimethoxyphenyl)-1,3-dihydro-imidazo[4,5-b]pyrazin-2-one], for which the half-inhibitory concentration (IC50) is 0.5 to 1 µM.
